Test results: US20160129044A1, “USE OF MESOTHELIAL CELLS IN TISSUE BIOENGINEERING AND ARTIFICIAL TISSUES” (FUNDACION PÚBLICA ANDALUZA PROGRESO Y SALUD, priority 2013, published 2016)

Test system: adipose tissue mesothelial cells (ATMCs)
Test: Epithelial-to-mesenchymal transition (EMT) of cultured adipose tissue mesothelial cells: morphology, α-SMA/F-actin immunofluorescence, Western blot
Format: cell-based, mouse
Settings: hydrocortisone 1 μg/ml; ATMCs cultured 3 days; basal media or 20 ng/ml EGF
Protocol: A total number of 3.5×10^5 ATMCs was seeded in each well of a 6 wells culture dishes (140685, Nunclon™ Δ Surface) into 1.5 ml of a culture media that we termed MRPM (Mesothelial Retaining Phenotype Media). […] Dev Dyn 236: 2973-2979) which are components of the fetal bovine serum (FBS). […] Concentration in viable ATMCs was assessed with a Neubaeur haemocytometer by using the trypan blue exclusion test and was adjusted to a final concentration of 1.6×10^6 cells/ml. […] The mesothelial phenotype of ATMCs cultured for 48 hours in MRPM into hydrophilic p-Dish as well as mesothelialized HALC cultures was analyzed with immunofluorescence. […] Fluorescence images were captured with an inverted fluorescence microscope Olympus IX71 as described above. Quantification of α-SMA immunofluorescence expression was performed with the use of the Meta Imaging Software MetaMorph Offline version 7.5.1.0 (MDS Analytical technologies, USA). For each immunofluorescence image, were calculated the average values of specific Hoechst 33342 and Alexa 488 nm fluorescence emitted by the cells. Specific fluorescence was obtained after eliminating the average values of background fluorescence emitted by 3 areas lacking cells. Hoechst 33342 and Alexa 488 nm fluorescence were further divided between each other to obtain a relative index of marker expression (arbitrary units). […]

C[C@]12CCC(=O)C=C1CC[C@@H]1[C@@H]2[C@@H](O)C[C@@]2(C)[C@H]1CC[C@]2(O)C(=O)CO [Hydrocortisone, hydrocortisone]
Effect on Serum- and EGF-induced EMT of ATMCs (α-SMA expression, immunofluorescence and Western blot): inhibits Serum- and EGF-induced EMT
